Results as given in patent publication US20260206755A1, “COMPOUNDS AND COMPOSITIONS HAVING KNOCK-DOWN OR BLOOD FEED INHIBITION ACTIVITY AGAINST INSECT PESTS” (priority 2017, published 2026).

What follows are compounds tested on Anopheles stephensi (assay: Anopheles stephensi treated well plate contact test: knockdown and mortality). Conditions: Anopheles stephensi; test compound 0.2 ppm, without TFNA-AM, after 24 hours; read-out: mortality % 24, without TFNA-AM.
Type: in vivo
Method: Examples Anopheles stephensi (Indian Malaria Mosquito)
The individual wells of twelve (12) well tissue culture plates were treated with 200 μl of an ethanol solution containing a test compound of Table 1 or Table 2 at a defined concentration and repeated with also 200 μl of an ethanol solution containing in addition 2 ppm TFNA-AM. Once the deposits were dry, five non-blood fed adult female Anopheles stephensi (between two to five day old) were added to each well, and sustained with a 10% sucrose solution in a cotton wool plug. Assessment of the knockdown after 1 hour, and mortality after 24 and 48 hours was carried out.
In case of multiple tests, the mean value is reported.

SMILES | mortality at 0.2 ppm [%]
Nc1nc(N)nc(NC2CC2)n1 [Cyromazine] | 0
CC(C)c1cc(Oc2ccccc2)cc(C(C)C)c1NC(=S)NC(C)(C)C [Diafenthiuron] | 0

Same assay, conditions: Anopheles stephensi; test compound 0.2 ppm, without TFNA-AM, after 48 hours; read-out: mortality % 48, without TFNA-AM

SMILES | mortality at 0.2 ppm [%]
Nc1nc(N)nc(NC2CC2)n1 [Cyromazine] | 0
CC(C)c1cc(Oc2ccccc2)cc(C(C)C)c1NC(=S)NC(C)(C)C [Diafenthiuron] | 20

Same assay, conditions: Anopheles stephensi; test compound 0.2 ppm, without TFNA-AM, knockdown after 1 hour; read-out: Knock Down, without TFNA-AM

SMILES | pest or weed control at 0.2 ppm [%]
Nc1nc(N)nc(NC2CC2)n1 [Cyromazine] | 0
CC(C)c1cc(Oc2ccccc2)cc(C(C)C)c1NC(=S)NC(C)(C)C [Diafenthiuron] | 60

Same assay, conditions: Anopheles stephensi; test compound 2 ppm, without TFNA-AM, after 24 hours; read-out: mortality % 24, without TFNA-AM

SMILES | mortality at 2 ppm [%]
Nc1nc(N)nc(NC2CC2)n1 [Cyromazine] | 0
CC(C)c1cc(Oc2ccccc2)cc(C(C)C)c1NC(=S)NC(C)(C)C [Diafenthiuron] | 0

Same assay, conditions: Anopheles stephensi; test compound 2 ppm, without TFNA-AM, after 48 hours; read-out: mortality % 48, without TFNA-AM

SMILES | mortality at 2 ppm [%]
Nc1nc(N)nc(NC2CC2)n1 [Cyromazine] | 0
CC(C)c1cc(Oc2ccccc2)cc(C(C)C)c1NC(=S)NC(C)(C)C [Diafenthiuron] | 20

Same assay, conditions: Anopheles stephensi; test compound 2 ppm, without TFNA-AM, knockdown after 1 hour; read-out: Knock Down, without TFNA-AM

SMILES | pest or weed control at 2 ppm [%]
Nc1nc(N)nc(NC2CC2)n1 [Cyromazine] | 0
CC(C)c1cc(Oc2ccccc2)cc(C(C)C)c1NC(=S)NC(C)(C)C [Diafenthiuron] | 100

Same assay, conditions: Anopheles stephensi; test compound 20 ppm, without TFNA-AM, after 24 hours; read-out: mortality % 24, without TFNA-AM

SMILES | mortality at 20 ppm [%]
Nc1nc(N)nc(NC2CC2)n1 [Cyromazine] | 0
CC(C)c1cc(Oc2ccccc2)cc(C(C)C)c1NC(=S)NC(C)(C)C [Diafenthiuron] | 0

Same assay, conditions: Anopheles stephensi; test compound 20 ppm, without TFNA-AM, after 48 hours; read-out: mortality % 48, without TFNA-AM

SMILES | mortality at 20 ppm [%]
Nc1nc(N)nc(NC2CC2)n1 [Cyromazine] | 0
CC(C)c1cc(Oc2ccccc2)cc(C(C)C)c1NC(=S)NC(C)(C)C [Diafenthiuron] | 0

Same assay, conditions: Anopheles stephensi; test compound 20 ppm, without TFNA-AM, knockdown after 1 hour; read-out: Knock Down, without TFNA-AM

SMILES | pest or weed control at 20 ppm [%]
Nc1nc(N)nc(NC2CC2)n1 [Cyromazine] | 0
CC(C)c1cc(Oc2ccccc2)cc(C(C)C)c1NC(=S)NC(C)(C)C [Diafenthiuron] | 100

Same assay, conditions: Anopheles stephensi; test compound 200 ppm, without TFNA-AM, after 24 hours; read-out: mortality % 24, without TFNA-AM

SMILES | mortality at 200 ppm [%]
Nc1nc(N)nc(NC2CC2)n1 [Cyromazine] | 0
CC(C)c1cc(Oc2ccccc2)cc(C(C)C)c1NC(=S)NC(C)(C)C [Diafenthiuron] | 100

Same assay, conditions: Anopheles stephensi; test compound 200 ppm, without TFNA-AM, after 48 hours; read-out: mortality % 48, without TFNA-AM

SMILES | mortality at 200 ppm [%]
Nc1nc(N)nc(NC2CC2)n1 [Cyromazine] | 0
CC(C)c1cc(Oc2ccccc2)cc(C(C)C)c1NC(=S)NC(C)(C)C [Diafenthiuron] | 100

Same assay, conditions: Anopheles stephensi; test compound 200 ppm, without TFNA-AM, knockdown after 1 hour, adult females; read-out: Knock Down, without TFNA-AM

SMILES | pest or weed control at 200 ppm [%]
Nc1nc(N)nc(NC2CC2)n1 [Cyromazine] | 0
CC(C)c1cc(Oc2ccccc2)cc(C(C)C)c1NC(=S)NC(C)(C)C [Diafenthiuron] | 100

Same assay, conditions: test compound 0.2 ppm plus 2 ppm TFNA-AM, after 24 hours

SMILES | mortality % 24, with TFNA-AM [%]
Nc1nc(N)nc(NC2CC2)n1 [Cyromazine] | 20
CC(C)c1cc(Oc2ccccc2)cc(C(C)C)c1NC(=S)NC(C)(C)C [Diafenthiuron] | 60

Same assay, conditions: test compound 0.2 ppm plus 2 ppm TFNA-AM, after 48 hours

SMILES | mortality % 48, with TFNA-AM [%]
Nc1nc(N)nc(NC2CC2)n1 [Cyromazine] | 0
CC(C)c1cc(Oc2ccccc2)cc(C(C)C)c1NC(=S)NC(C)(C)C [Diafenthiuron] | 0

Same assay, conditions: test compound 0.2 ppm plus 2 ppm TFNA-AM, knockdown after 1 hour

SMILES | Knock Down, with TFNA-AM [%]
Nc1nc(N)nc(NC2CC2)n1 [Cyromazine] | 100
CC(C)c1cc(Oc2ccccc2)cc(C(C)C)c1NC(=S)NC(C)(C)C [Diafenthiuron] | 100

Same assay, conditions: test compound 2 ppm plus 2 ppm TFNA-AM, after 24 hours

SMILES | mortality % 24, with TFNA-AM [%]
Nc1nc(N)nc(NC2CC2)n1 [Cyromazine] | 20
CC(C)c1cc(Oc2ccccc2)cc(C(C)C)c1NC(=S)NC(C)(C)C [Diafenthiuron] | 100

Same assay, conditions: test compound 2 ppm plus 2 ppm TFNA-AM, after 48 hours

SMILES | mortality % 48, with TFNA-AM [%]
Nc1nc(N)nc(NC2CC2)n1 [Cyromazine] | 0
CC(C)c1cc(Oc2ccccc2)cc(C(C)C)c1NC(=S)NC(C)(C)C [Diafenthiuron] | 60

Same assay, conditions: test compound 2 ppm plus 2 ppm TFNA-AM, knockdown after 1 hour

SMILES | Knock Down, with TFNA-AM [%]
Nc1nc(N)nc(NC2CC2)n1 [Cyromazine] | 100
CC(C)c1cc(Oc2ccccc2)cc(C(C)C)c1NC(=S)NC(C)(C)C [Diafenthiuron] | 100

Same assay, conditions: test compound 20 ppm plus 2 ppm TFNA-AM, after 24 hours

SMILES | mortality % 24, with TFNA-AM [%]
Nc1nc(N)nc(NC2CC2)n1 [Cyromazine] | 60
CC(C)c1cc(Oc2ccccc2)cc(C(C)C)c1NC(=S)NC(C)(C)C [Diafenthiuron] | 100

Same assay, conditions: test compound 20 ppm plus 2 ppm TFNA-AM, after 48 hours

SMILES | mortality % 48, with TFNA-AM [%]
Nc1nc(N)nc(NC2CC2)n1 [Cyromazine] | 40
CC(C)c1cc(Oc2ccccc2)cc(C(C)C)c1NC(=S)NC(C)(C)C [Diafenthiuron] | 80

Same assay, conditions: test compound 20 ppm plus 2 ppm TFNA-AM, knockdown after 1 hour

SMILES | Knock Down, with TFNA-AM [%]
Nc1nc(N)nc(NC2CC2)n1 [Cyromazine] | 100
CC(C)c1cc(Oc2ccccc2)cc(C(C)C)c1NC(=S)NC(C)(C)C [Diafenthiuron] | 100

Same assay, conditions: test compound 200 ppm plus 2 ppm TFNA-AM, after 24 hours

SMILES | mortality % 24, with TFNA-AM [%]
Nc1nc(N)nc(NC2CC2)n1 [Cyromazine] | 80
CC(C)c1cc(Oc2ccccc2)cc(C(C)C)c1NC(=S)NC(C)(C)C [Diafenthiuron] | 100

Same assay, conditions: test compound 200 ppm plus 2 ppm TFNA-AM, after 48 hours

SMILES | mortality % 48, with TFNA-AM [%]
Nc1nc(N)nc(NC2CC2)n1 [Cyromazine] | 40
CC(C)c1cc(Oc2ccccc2)cc(C(C)C)c1NC(=S)NC(C)(C)C [Diafenthiuron] | 100

Same assay, conditions: test compound 200 ppm plus 2 ppm TFNA-AM, knockdown after 1 hour

SMILES | Knock Down, with TFNA-AM [%]
Nc1nc(N)nc(NC2CC2)n1 [Cyromazine] | 100
CC(C)c1cc(Oc2ccccc2)cc(C(C)C)c1NC(=S)NC(C)(C)C [Diafenthiuron] | 100
